# Read-outs that look alike come from different tables or passages of the source.
# Columns and labels:
# [1] = system: MonoMac6 cells; test: Cytostatic activity, MTT assay; type: cell-based, human; conditions: MonoMac6, at a concentration of 100 µM
# Procedure: (§1) Since compounds containing trifluoromethyl group has been known for their toxic action on eukaryotic cells and approved as anticancer drugs, we investigated cytostatic properties of the derivatives 2–4 using human hepatocellular carcinoma (HepG2) and monocyte (MonoMac6) cell lines. […] The remaining compounds have no cytostatic effect up to 50 µM. Higher concentrations were not investigated due to solubility problems, i.e., precipitation of crystals. […]
# (§2) The cell viability was determined by 3-(4,5-dimethylthiazol-2-yl)-2,5-diphenyltetrazolium bromide (MTT) assay. […] The obtained formazan crystals were dissolved in 100 μL of DMSO and the optical density (OD) of the samples was measured at λ = 540 and 620 nm, respectively, employing an ELISA reader (iEMS Reader, Labsystems, Helsinki, Finland). OD620 values were subtracted from OD540 values and the percent of cytostasis was calculated using the following equation:Cytostatic effect (%) = [1 − (ODtreated/ODcontrol)] × 100 where ODtreated and ODcontrol correspond to the optical densities of the treated and the control cells, respectively). […]
# [2] = system: HepG2 cells; test: Cytostatic activity, MTT assay; type: cell-based, human; conditions: HepG2, at a concentration of 100 µM
# Procedure: as §1, §2
# [3] = biological target: T1, BuChE from equine serum (EqBuChE) (Equus caballus, UniProt P81908); test: biochemical; conditions: mean ± SD, n = three independent experiments
# T1 construct: butyrylcholinesterase from equine serum (EqBuChE); purchased Sigma-Aldrich (Prague, Czech Republic); host or cells: equine serum (natural source)
# T1 sequence (P81908 whole entry): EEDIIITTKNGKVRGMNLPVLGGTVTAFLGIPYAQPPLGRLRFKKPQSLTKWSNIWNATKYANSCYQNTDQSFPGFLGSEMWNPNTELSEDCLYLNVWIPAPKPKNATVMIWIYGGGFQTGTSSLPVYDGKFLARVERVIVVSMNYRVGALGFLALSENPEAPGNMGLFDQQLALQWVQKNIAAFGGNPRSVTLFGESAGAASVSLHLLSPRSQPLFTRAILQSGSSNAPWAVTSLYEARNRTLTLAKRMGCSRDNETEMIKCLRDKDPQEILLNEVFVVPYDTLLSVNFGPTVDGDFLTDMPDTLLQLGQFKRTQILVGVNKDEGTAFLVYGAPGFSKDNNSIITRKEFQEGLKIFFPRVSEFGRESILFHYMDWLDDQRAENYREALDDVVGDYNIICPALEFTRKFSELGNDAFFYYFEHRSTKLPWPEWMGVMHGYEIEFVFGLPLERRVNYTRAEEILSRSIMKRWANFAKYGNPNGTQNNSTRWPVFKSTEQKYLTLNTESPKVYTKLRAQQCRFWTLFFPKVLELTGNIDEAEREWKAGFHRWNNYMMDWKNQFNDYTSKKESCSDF
# Procedure: (§3) Newly synthesized N-alkyl-2-[4-(trifluoromethyl)benzoyl]hydrazine-1-carboxamides 2a–2q were evaluated for their in vitro potency to inhibit AChE from electric eel (EeAChE) and BuChE from equine serum (EqBuChE) using modified Ellman’s spectrophotometric method. […] The efficacy of inhibitors is expressed as IC50, i.e., the concentration causing 50% inhibition of the enzyme activity. Based on IC50 values for both enzymes, selectivity indexes (SI) as the ratio of IC50 for BuChE/IC50 for AChE to quantify the preference for AChE were calculated (Table 1).
# (§4) IC50 values were determined using the spectrophotometric Ellman’s method modified according to Zdražilová et al., which is a simple, rapid and direct method to determine the SH and -S-S- group content. This method is widely used for the screening of the efficiency of cholinesterases inhibitors. The enzymatic activity is measured indirectly by quantifying the concentration of the 5-thio-2-nitrobenzoic acid ion formed in the reaction between the thiol reagent 5,5′-dithio-bis(2-nitrobenzoic acid) and thiocholine, a product of acetylthiocholine substrate hydrolysis by cholinesterases.
# (§5) The enzyme activity in final reaction mixture (2000 µL) was 0.2 U/mL, concentration of acetylthiocholine (or butyrylthiocholine) 40 µM and concentration of 5,5′-dithio-bis(2-nitrobenzoic acid) 0.1 mM for all reactions. The tested compounds were dissolved in DMSO and then diluted in demineralized water to the concentration of 1 mM. […] All measurements were carried in triplicates and the average values of reaction rate (v0-uninhibited reaction, vi-inhibited reaction) were used for construction of the dependence v0/vi vs. concentration of inhibitor. From obtained equation of regression curve, IC50 values were calculated.
# (§6) Acetylcholinesterase used was obtained from electric eel (Electrophorus electricus L.; EeAChE) and butyrylcholinesterase from equine serum (EqBuChE).
# [4] = biological target: T2, AChE from electric eel (EeAChE) (Electrophorus electricus, UniProt O42275); test: biochemical; conditions: for IC50: electric eel AChE, mean ± SD, n = three independent experiments; for Selectivity BuChE/AChE (selectivity index, SI): ratio of IC50 for BuChE/IC50 for AChE
# T2 construct: Acetylcholinesterase used was obtained from electric eel (Electrophorus electricus L; EeAChE); purchased Sigma-Aldrich (Prague, Czech Republic); host or cells: electric eel (natural source)
# T2 sequence (O42275 24-633): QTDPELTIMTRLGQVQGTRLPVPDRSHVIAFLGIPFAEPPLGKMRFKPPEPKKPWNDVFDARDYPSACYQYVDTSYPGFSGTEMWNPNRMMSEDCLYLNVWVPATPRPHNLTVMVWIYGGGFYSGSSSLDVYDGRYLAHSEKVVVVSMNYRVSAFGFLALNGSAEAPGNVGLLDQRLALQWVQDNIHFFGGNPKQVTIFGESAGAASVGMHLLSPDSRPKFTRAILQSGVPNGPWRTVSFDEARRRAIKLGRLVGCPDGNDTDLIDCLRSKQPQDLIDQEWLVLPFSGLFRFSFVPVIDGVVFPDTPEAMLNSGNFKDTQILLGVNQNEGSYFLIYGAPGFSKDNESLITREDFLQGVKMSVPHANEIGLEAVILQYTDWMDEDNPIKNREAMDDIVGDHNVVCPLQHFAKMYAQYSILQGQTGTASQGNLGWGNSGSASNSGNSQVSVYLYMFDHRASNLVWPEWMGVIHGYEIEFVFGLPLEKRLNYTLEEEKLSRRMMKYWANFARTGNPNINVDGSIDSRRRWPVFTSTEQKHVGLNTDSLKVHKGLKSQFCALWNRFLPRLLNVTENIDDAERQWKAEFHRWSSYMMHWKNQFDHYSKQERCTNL
# Procedure: as §3, §4, §5, §6
# [5] = system: Mycobacterium tuberculosis 331/88 (H37Rv); test: In vitro antimycobacterial activity (MIC); type: cell-based; conditions: read-out: MIC M. tuberculosis
# [6] = system: M. kansasii 235/80 and M. kansasii 6509/96; test: In vitro antimycobacterial activity (MIC); type: cell-based; conditions: Mycobacterium kansasii, read-out: MIC M. kansasii
# [7] = system: M. tuberculosis 331/88, M. avium 330/88, M. kansasii 235/80, M. kansasii 6509/96; test: In vitro antimycobacterial activity (MIC), whole panel, strain not specified; type: cell-based; conditions: panel of four mycobacterial strains; read-out: MIC (mycobacteria, strain not specified)
Structure (SMILES),IC50 ([4]; read-out: IC50 AChE) [µM],"Selectivity BuChE/AChE (selectivity index, SI) [4]",IC50 ([3]; read-out: IC50 BuChE) [µM],other results
"NNC(=O)c1ccc(C(F)(F)F)cc1 [compound 1, 4-(Trifluoromethyl)benzohydrazide]",,,,cytostatic action [1]: avoided any cytostatic action; cytostatic action [2]: avoided any cytostatic action; IC50 ([3]; IC50 BuChE): 204 ± 2.69 µM
"CCCCCCCCCCCNC(=O)NNC(=O)c1ccc(C(F)(F)F)cc1 [2k, 2-[4-(Trifluoromethyl)benzoyl]-N-undecylhydrazine-1-carboxamide]",40.71 ± 0.37,4.4,179 ± 2.96,
"CCCCCCNc1nnc(-c2ccc(C(F)(F)F)cc2)o1 [compound 4, N-Hexyl-5-[4-(trifluoromethyl)phenyl]-1,3,4-oxadiazol-2-amine]",71.32 ± 0.63,1.7,118 ± 1.46,MIC ([5]; H37RV): 125 to 250 µM; MIC [6]: 62.5 to 250 µM; MIC [7]: ≥ 62.5 µM
"NNC(=O)c1ccncc1 [isoniazid, isonicotinoylhydrazide, reference compound]",,,,MIC ([5]; M. tuberculosis 331/88 (H37Rv)): 1 µM
"CCCCCCCNC(=O)NNC(=O)c1ccc(C(F)(F)F)cc1 [2g, N-Heptyl-2-[4-(trifluoromethyl)benzoyl]hydrazine-1-carboxamide]",59.2 ± 2.38,1.3,79.3 ± 1.53,
"CCCCCCCCCNC(=O)NNC(=O)c1ccc(C(F)(F)F)cc1 [2i, N-Nonyl-2-[4-(trifluoromethyl)benzoyl]hydrazine-1-carboxamide]",107,0.8,82.2 ± 3.42,
"CNC(=O)NNC(=O)c1ccc(C(F)(F)F)cc1 [2a, N-Methyl-2-[4-(trifluoromethyl)benzoyl]hydrazine-1-carboxamide]",,2.7,,MIC ([5]; H37RV): 1000 µM; IC50 ([4]; IC50 AChE): 31.2 ± 1.87 µM; IC50 ([3]; IC50 BuChE): 84.2 ± 2.1 µM; MIC [6]: 1000 µM
"CCCNC(=O)NNC(=O)c1ccc(C(F)(F)F)cc1 [2c, N-Propyl-2-[4-(trifluoromethyl)benzoyl]hydrazine-1-carboxamide]",82.3 ± 3.31,,112.7 ± 0.98,
"CCCCNC(=O)NNC(=O)c1ccc(C(F)(F)F)cc1 [2d, N-Butyl-2-[4-(trifluoromethyl)benzoyl]hydrazine-1-carboxamide]",38.6 ± 1.32,2.3,87.8 ± 7.96,
"CCCCCCCCCCCCCCNC(=O)NNC(=O)c1ccc(C(F)(F)F)cc1 [2n, N-Tetradecyl-2-[4-(trifluoromethyl)benzoyl]hydrazine-1-carboxamide]",38.7 ± 1.14,6.8,262 ± 17.2,
"CCCCCCCCCCCCCNC(=O)NNC(=O)c1ccc(C(F)(F)F)cc1 [2m, N-Tridecyl-2-[4-(trifluoromethyl)benzoyl]hydrazine-1-carboxamide]",,9.6,277 ± 10.3,IC50 ([4]; IC50 AChE): 28.9 ± 0.67 µM; IC50 ([3]; IC50 BuChE): 278 µM
"CCCCCCCCCCCCNC(=O)NNC(=O)c1ccc(C(F)(F)F)cc1 [2l, N-Dodecyl-2-[4-(trifluoromethyl)benzoyl]hydrazine-1-carboxamide]",45.2 ± 0.69,5.8,264.14 ± 0.22,
"CCCCCCCCCCCCCCCC(=O)NNC(=O)c1ccc(C(F)(F)F)cc1 [3b, N′-Palmitoyl-4-(trifluoromethyl)benzohydrazide]",91.9 ± 6.79,1.6,148.6 ± 0.36,
"CCCCCCCCCCCCCCCCCCNC(=O)NNC(=O)c1ccc(C(F)(F)F)cc1 [2q, N-Octadecyl-2-[4-(trifluoromethyl)benzoyl]hydrazine-1-carboxamide]",72.3 ± 2.01,2.0,146 ± 2.6,
"CCCCCCCCCCCCCCCCNC(=O)NNC(=O)c1ccc(C(F)(F)F)cc1 [2p, N-Hexadecyl-2-[4-(trifluoromethyl)benzoyl]hydrazine-1-carboxamide]",68.63 ± 0.56,2.7,187 ± 13.2,
"CCCCCCCCNC(=O)NNC(=O)c1ccc(C(F)(F)F)cc1 [2h, N-Octyl-2-[4-(trifluoromethyl)benzoyl]hydrazine-1-carboxamide]",77 ± 4.75,1.3,101.3 ± 0.99,
"CCCCCCCCCCCCCCCNC(=O)NNC(=O)c1ccc(C(F)(F)F)cc1 [2o, N-Pentadecyl-2-[4-(trifluoromethyl)benzoyl]hydrazine-1-carboxamide]",27,8.6,233 ± 15.7,
"CCCCCCNC(=O)NNC(=O)c1ccc(C(F)(F)F)cc1 [2f, N-Hexyl-2-[4-(trifluoromethyl)benzoyl]hydrazine-1-carboxamide]",49.2 ± 2.36,1.5,72.5 ± 1.51,MIC ([5]; H37RV): 250 µM; MIC [6]: 250 µM
"CCCCCCCCCCNC(=O)NNC(=O)c1ccc(C(F)(F)F)cc1 [2j, N-Decyl-2-[4-(trifluoromethyl)benzoyl]hydrazine-1-carboxamide]",49.5 ± 1.74,3.9,192 ± 6.83,
"CCNC(=O)NNC(=O)c1ccc(C(F)(F)F)cc1 [2b, N-Ethyl-2-[4-(trifluoromethyl)benzoyl]hydrazine-1-carboxamide]",56.32 ± 0.54,1.8,103 ± 2.75,MIC ([5]; H37RV): 1000 µM; MIC [6]: 1000 µM
"CCCCCC(=O)NNC(=O)c1ccc(C(F)(F)F)cc1 [3a, N′-Hexanoyl-4-(trifluoromethyl)benzohydrazide]",67.1 ± 3.05,1.6,110 ± 0.2,MIC ([5]; H37RV): 125 µM; MIC [6]: > 250 µM
"CCCCCNC(=O)NNC(=O)c1ccc(C(F)(F)F)cc1 [2e, N-Pentyl-2-[4-(trifluoromethyl)benzoyl]hydrazine-1-carboxamide]",43.59 ± 0.41,1.3,58,

# Source: article PMC7287908, “N-Alkyl-2-[4-(trifluoromethyl)benzoyl]hydrazine-1-carboxamides and Their Analogues: Synthesis and Multitarget Biological Activity” (Molecules, 2020)
